The structures appear in SMILES notation. Structures can show the parent of a compound that is named as a salt.

The text below walks through data of patent publication US20170320870A1 (Medical Research Council Technology, priority 2009, published 2017).

The experiment deals with T1, LRRK2 wild type (recombinant human, catalytic domain amino acids 970-2527, GST-tagged) (Homo sapiens, UniProt Q5S007).
T1 construct: The wild type used was recombinant human, catalytic domain (amino acids 970-2527) GST-tagged, expressed in insect cells; GST; purchased Invitrogen Corporation PV4873; host or cells: insect cells
Kind of experiment: LRRK2 wild type protein kinase assay ([γ-33P] ATP, peptide substrate […]), IC50. Conditions: LRRK2 (variant not given); read-out: Potency score, LRRK2 IC50. The experiment is classed as biochemical. The text has this:
All LRRK2 protein kinases were of human origin and were sourced from Invitrogen Corporation (Carlsbad, Calif. 92008 USA) unless otherwise indicated. The active mutant used was recombinant human, catalytic domain (amino acids 970-2527) containing a G2019S mutation, GST-tagged, expressed in insect cells (Invitrogen Cat#PV4881). The wild type used was recombinant human, catalytic domain (amino acids 970-2527) GST-tagged, expressed in insect cells (Invitrogen Cat#PV4873). The kinase dead mutant used was recombinant human, catalytic domain (amino acids 970-2527) containing a D1994A mutation, GST-tagged, expressed in insect cells (Invitrogen Cat#PM4041AE). No special measures were taken to activate any of the kinases.
All assays were carried out at room temperature (˜21° C.) and were linear with respect to time and enzyme concentration under the conditions used. Assays were performed for 180 min in a 96 well format. LRRK2 was present at a concentration of approximately 5 nM. The enzyme was diluted and assayed in 50 mM Tris-HCl pH7.5, 0.1 mM EGTA, 1 mM DTT and 10 mM MgCl2. The concentration of magnesium chloride in the assay was 10 mM. The [γ-33P] […] The peptide substrate in the assay was […] at 100 μM.
The assays were initiated with Mg/ATP and stopped by the addition of 25 μl/well 50% orthophosphoric acid. Reactions were harvested onto Whatman P81 Unifilter Plates (Fisher Scientific. Loughborough, LE115RG, UK. Cat# FDU-105-020U) using a Tomtec harvester. (Tomtec Hamden, Conn. 06514. USA) Plates were counted using a Perkin Elmer Top Count NX7. (Perkin Elmer, Shelton Conn. 06484-4794 USA)
IC50 values of inhibitors were determined after carrying out assays at 10 different concentrations of each compound in duplicate.

T1 sequence (Q5S007 970-2527): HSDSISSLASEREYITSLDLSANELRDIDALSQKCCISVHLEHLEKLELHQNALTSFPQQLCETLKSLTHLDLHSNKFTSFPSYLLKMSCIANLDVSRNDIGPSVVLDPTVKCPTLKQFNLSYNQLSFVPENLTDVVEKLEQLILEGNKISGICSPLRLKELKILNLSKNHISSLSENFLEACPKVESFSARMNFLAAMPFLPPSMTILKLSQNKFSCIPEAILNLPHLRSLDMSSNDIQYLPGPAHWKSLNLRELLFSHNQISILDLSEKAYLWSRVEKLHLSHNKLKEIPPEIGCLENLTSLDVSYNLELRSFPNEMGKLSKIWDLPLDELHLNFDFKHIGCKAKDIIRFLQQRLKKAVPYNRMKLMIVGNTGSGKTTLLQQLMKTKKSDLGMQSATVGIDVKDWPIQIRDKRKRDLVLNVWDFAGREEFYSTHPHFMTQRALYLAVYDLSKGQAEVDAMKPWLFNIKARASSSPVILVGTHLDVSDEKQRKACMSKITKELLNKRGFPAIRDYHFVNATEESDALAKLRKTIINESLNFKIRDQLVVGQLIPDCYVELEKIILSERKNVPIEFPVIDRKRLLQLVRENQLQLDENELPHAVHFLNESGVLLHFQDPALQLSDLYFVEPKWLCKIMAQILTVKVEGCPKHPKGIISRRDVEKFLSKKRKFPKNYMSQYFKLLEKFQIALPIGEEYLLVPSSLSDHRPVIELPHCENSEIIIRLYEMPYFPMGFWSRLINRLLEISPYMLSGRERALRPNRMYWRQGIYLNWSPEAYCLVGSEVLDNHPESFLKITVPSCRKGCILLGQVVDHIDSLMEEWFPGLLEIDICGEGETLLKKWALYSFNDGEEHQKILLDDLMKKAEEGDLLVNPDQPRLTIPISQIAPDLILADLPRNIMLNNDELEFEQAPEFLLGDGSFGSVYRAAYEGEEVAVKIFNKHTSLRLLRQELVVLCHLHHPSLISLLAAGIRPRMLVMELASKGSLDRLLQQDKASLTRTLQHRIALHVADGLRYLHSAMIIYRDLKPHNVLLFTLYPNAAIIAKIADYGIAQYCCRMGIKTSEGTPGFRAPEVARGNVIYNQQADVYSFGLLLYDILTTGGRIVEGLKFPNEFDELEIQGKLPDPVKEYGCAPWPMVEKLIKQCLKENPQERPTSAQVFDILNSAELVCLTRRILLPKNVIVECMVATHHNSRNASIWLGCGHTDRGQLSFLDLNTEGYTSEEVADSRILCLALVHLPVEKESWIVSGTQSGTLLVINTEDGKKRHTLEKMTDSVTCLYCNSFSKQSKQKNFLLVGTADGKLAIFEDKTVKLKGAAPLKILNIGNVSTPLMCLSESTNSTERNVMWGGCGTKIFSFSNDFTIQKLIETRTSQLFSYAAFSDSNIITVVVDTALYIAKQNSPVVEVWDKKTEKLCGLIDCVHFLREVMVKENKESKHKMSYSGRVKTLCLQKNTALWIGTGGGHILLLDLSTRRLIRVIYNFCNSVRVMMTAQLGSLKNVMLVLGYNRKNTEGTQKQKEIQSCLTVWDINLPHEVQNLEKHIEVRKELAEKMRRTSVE

For `CC(C)C(=O)Nc1ccc(CCc2n[nH]c3ccnc(NC4CCCCC4)c23)cc1` [Example 263, N-{4-[2-(4-Cyclohexylamino-1H-pyrazolo[4,3-c]pyridin-3-yl)-ethyl]-phenyl}-isobutyramide], the half-inhibitory concentration (IC50) is 0.1 to 1 µM. Consider `N#Cc1cccc(C(=O)Nc2ccc(CCc3n[nH]c4ccnc(NC5CCCCC5)c34)cc2)c1` [Example 276, 3-Cyano-N-{4-[2-(4-cyclohexylamino-1H-pyrazolo[4,3-c]pyridin-3-yl)-ethyl]-phenyl}-benzamide], for which the IC50 is less than 0.1 µM.

In the case of `O=C(CCc1n[nH]c2ccnc(NC3CCCCC3)c12)N1CCCC(Cc2ccccc2)C1` (centres unmarked) [Example 194, 1-(3-Benzyl-piperidin-1-yl)-3-(4-cyclohexylamino-1H-pyrazolo[4,3-c]pyridin-3-yl)-propan-1-one], the half-maximal inhibitory concentration (IC50) is less than 0.1 µM. The figure for `Cc1n[nH]c2ccnc(OC3CCN(C)CC3)c12` [Example 116, 3-Methyl-4-(1-methyl-piperidin-4-yloxy)-1H-pyrazolo[4,3-c] pyridine] is 1 to 10 µM. As for `Cc1n[nH]c2ccnc(N3CCN(C)CC3)c12` [Example 5, 3-Methyl-4-(4-methyl-piperazin-1-yl)-1H-pyrazolo[4,3-c]pyridine], the figure is 1 to 10 µM; as for `Cc1n[nH]c2ccnc(NC3CCOCC3)c12` [Example 4, (3-Methyl-1H-pyrazolo[4,3-c]pyridin-4-yl)-(tetrahydro-pyran-4-yl)-amine], 0.1 to 1 µM. As for `Cc1n[nH]c2ccnc(N[C@H]3CC[C@H](O)CC3)c12` [Example 26, Trans-4-(3-Methyl-1H-pyrazolo[4,3-c]pyridin-4-ylamino)-cyclohexanol], the figure is 0.1 to 1 µM. As for `Cc1n[nH]c2ccnc(Nc3ccc(C(=O)NC4CCCC4)cc3)c12` [Example 106, N-Cyclopentyl-4-(3-methyl-1H-pyrazolo[4,3-c]pyridin-4-ylamino)-benzamide], the IC50 fell in the range of 1 to 10 µM.

Consider `CN1CCN(C(=O)CCc2n[nH]c3ccnc(NC4CCCCC4)c23)CC1` [Example 177, 3-(4-Cyclohexylamino-1H-pyrazolo[4,3-c]pyridin-3-yl)-1-(4-methyl-piperazin-1-yl)-propan-1-one], for which the IC50 lay in the range of 0.1 to 1 µM. As for `c1ccc(CCc2n[nH]c3ccnc(NC4CCCCC4)c23)nc1` [Example 214, Cyclohexyl-[3-(2-pyridin-2-yl-ethyl)-1H-pyrazolo[4,3-c]pyridin-4-yl]-amine], the figure is less than 0.1 µM. Regarding `CN(C)C(=O)CCc1n[nH]c2ccnc(NC3CCCCC3)c12` [Example 212, 3-(4-Cyclohexylamino-1H-pyrazolo[4,3-c]pyridin-3-yl)-N,N-dimethyl-propionamide], the IC50 was 0.1 to 1 µM. As for `Cc1n[nH]c2ccnc(NCCCO)c12` [Example 301, 3-(3-Methyl-1H-pyrazolo[4,3-c]pyridin-4-ylamino)-propan-1-ol], the figure is 1 to 10 µM; as for `Cc1n[nH]c2ccnc(Oc3ccc(-n4ccnc4)cc3)c12` [Example 120, 4-(4-Imidazol-1-yl-phenoxy)-3-methyl-1H-pyrazolo[4,3-c]pyridine], 0.1 to 1 µM; as for `Cc1n[nH]c2ccnc(Nc3ccc(-n4cncn4)cc3)c12` [Example 96, (3-Methyl-1H-pyrazolo[4,3-c]pyridin-4-yl)-(4-1,2,4-triazol-1-yl-phenyl)-amine hydrochloride salt], 0.1 to 1 µM.

In the case of `Cc1n[nH]c2ccnc(NC(C)C)c12` [Example 36, Isopropyl-(3-methyl-1H-pyrazolo[4,3-c]pyridin-4-yl)-amine], the IC50 lay in the range of 0.1 to 1 µM. Regarding `Cc1n[nH]c2ccnc(NCc3ccco3)c12` [Example 303, Furan-2-ylmethyl-(3-methyl-1H-pyrazolo[4,3-c]pyridin-4-yl)-amine], the IC50 lay in the range of 1 to 10 µM. As for `O=C(CCc1n[nH]c2ccnc(NC3CCCCC3)c12)N1CCC(c2ccccc2)C1` (centres unmarked) [Example 206, 3-(4-Cyclohexylamino-1H-pyrazolo[4,3-c]pyridin-3-yl)-1-(3-phenyl-pyrrolidin-1-yl)-propan-1-one], the figure is less than 0.1 µM; as for `CC1CN(C(=O)CCc2n[nH]c3ccnc(NC4CCCCC4)c23)C1` [Example 241, 3-(4-Cyclohexyl-amino-1H-pyrazolo [4,3-c]pyridin-3-yl)-1-(3-methyl-azetidin-1-yl)-propan-1-one], less than 0.1 µM; as for `CCOc1ccc(Nc2nccc3[nH]nc(C)c23)cc1` [Example 72, (4-Ethoxy-phenyl)-(3-methyl-1H-pyrazolo[4,3-c]pyridin-4-yl)-amine], 0.1 to 1 µM.

For the molecule `CN(CCc1ccccc1)C(=O)CCc1n[nH]c2ccnc(NC3CCCCC3)c12` [Example 189, 3-(4-Cyclohexylamino-1H-pyrazolo[4,3-c]pyridin-3-yl)-N-methyl-N-phenethyl-propionamide], the IC50 fell in the range of 1 to 10 µM. The figure for `Cc1n[nH]c2ccnc(N3CCN(c4ccccn4)CC3)c12` [Example 9, 3-Methyl-4-(4-pyridin-2-yl-piperazin-1-yl)-1H-pyrazolo[4,3-c]pyridine] is 1 to 10 µM. The figure for `O=C(c1ccc(CCc2n[nH]c3ccnc(NC4CCCCC4)c23)cc1)N1CCOCC1` [Example 253, {4-[2-(4-Cyclohexylamino-1H-pyrazolo[4,3-c]pyridin-3-yl)-ethyl]-phenyl}-morpholin-4-yl-methanone] is less than 0.1 µM. As for `c1cncc(-c2n[nH]c3ccnc(NC4CCCCC4)c23)c1` [Example 135, Cyclohexyl-(3-pyridin-3-yl-1H-pyrazolo[4,3-c]pyridin-4-yl)-amine], the figure is 0.1 to 1 µM; as for `O=C(CCc1n[nH]c2ccnc(NC3CCCCC3)c12)Nc1cccnc1` [Example 188, 3-(4-Cyclohexylamino-1H-pyrazolo[4,3-c]pyridin-3-yl)-N-pyridin-3-yl-propionamide], 1 to 10 µM. `Cc1n[nH]c2ccnc(Nc3ccc(Cl)c(Cl)c3)c12` [Example 305, (3,4-Dichloro-phenyl)-(3-methyl-1H-pyrazolo[4,3-c]pyridin-4-yl)-amine]: the IC50 is 0.1 to 1 µM.

Take `Cc1n[nH]c2ccnc(Cc3ccccc3)c12` [Example 125, 4-Benzyl-3-methyl-1H-pyrazolo[4,3-c]pyridine]: the IC50 was 1 to 10 µM. As for `Cc1n[nH]c2ccnc(NCC3CCCCC3)c12` [Example 325, Cyclohexylmethyl-(3-methyl-1H-pyrazolo[4,3-c]pyridin-4-yl)-amine], the figure is 1 to 10 µM; as for `Cc1ccc(Nc2nccc3[nH]nc(C)c23)cc1` [Example 318, (4-Methyl-phenyl)-(3-methyl-1H-pyrazolo[4,3-c]pyridin-4-yl)-amine], less than 0.1 µM; as for `Cc1n[nH]c2ccnc(Nc3ccc(-c4cnco4)cc3)c12` [Example 87, (3-Methyl-1H-pyrazolo[4,3-c]pyridin-4-yl)-(4-oxazol-5-yl-phenyl)-amine], 0.1 to 1 µM. With `CO[C@@H](C)COc1nccc2[nH]nc(C)c12` [Example 287], the IC50 fell in the range of 1 to 10 µM. The figure for `O=C(Nc1ccc(CCc2n[nH]c3ccnc(NC4CCCCC4)c23)cc1)c1cocn1` [Example 268, Oxazole-4-carboxylic acid {4-[2-(4-cyclohexylamino-1H-pyrazolo[4,3-c]pyridin-3-yl)-ethyl]-phenyl}-amide] is less than 0.1 µM; for `O=C(Nc1cccc(CCc2n[nH]c3ccnc(NC4CCCCC4)c23)c1)c1ccc(N2CCOCC2)cc1` [Example 227, N-{3-[2-(4-Cyclohexylamino-1H-pyrazolo[4,3-c]pyridin-3-yl)-ethyl]-phenyl}-4-morpholin-4-yl-benzamide] it is less than 0.1 µM.

Broadly, the IC50 is the concentration needed to halve the response being measured.
